# Data taken from article PMC7357169, “Blinded, Multicenter Evaluation of Drug-induced Changes in Contractility Using Human-induced Pluripotent Stem Cell-derived Cardiomyocytes” (Toxicological Sciences, 2020).
# Where two headings read alike, the source gives them in different places.
# Key:
# R-PAT hiPSC-CMs = assay: CO:R-PAT contractility, refined conditions (RPMI-B27, slowed beat rate); assay type: cell-based, human; settings: analysis of different stages of relaxation; platform taken from context (CO:R-PAT)
# Source text: The hiPSC-CMs used were R-PAT (derived and differentiated in house as described previously) ([Mosqueira et al., 2018]; [Smith et al., 2018]), and iCell^2 and Pluricyte (purchased from Cellular Dynamics International and Ncardia). Manufacturer instructions were followed for the commercial hiPSC lines. For iCell^2, seeding was at 25 000 cells into each well of 96-well plates (Nunclon Delta Surface; Thermo, 167008) and then maintained for 10 days before use in drug evaluation studies. The same plates were used for R-PAT hiPSC-CMs, which were seeded at 40 000 cells/well and maintained until days 20 and 21 of differentiation before use. For Pluricyte hiPSC-CMs, seeding was at 35 000 cells into each well of 96-well plates (Greiner Bio-One; 655087) and then maintained for 8 days before use. […]
# hiPSC-CMs in 96-well plate were transiently loaded in 50 µl/well of SFM containing FluoVolt (1:200 part B, 1:2000 part A; Life Tech, F10488) for 20 min at 37°C and 5% CO2. […] Electrophysiology data were analyzed using CellOPTIQ proprietary software of Clyde Biosciences and were normalized to a maximum amplitude of 1 and minimum of 0 to standardize height for comparison of traces created in OriginPro (OriginLab version 7.5). Contractility data were analyzed based on pixel displacement using an ImageJ plug-in. […]
# hiPSC-CM EHTs = assay: EHT contractility with beat rate slowed by 300 nM ivabradine and electrical pacing 0.5-2.0 Hz; assay type: cell-based, human; settings: for CA response: EHTs with 300 nM ivabradine, paced, only at 0.5 and 0.7 Hz, sometimes at 1 Hz, never at 1.5 or 2 Hz, high concentration bolus
# Method: We extended these studies to the 3D EHT platform, this time slowing spontaneous beating to < 0.5 Hz with 300 nM ivabradine, a pharmacological blocker of the “funny” If current ([Bois et al., 1996]). […] Whereas force-frequency relationships was negative above 1.5 Hz, it was positive between 0.5 and 1.5 Hz, evidenced by a 147% increase in force generation concurrent with significant shortening of CT and RT (Supplementary Figure 6). We therefore re-evaluated 6 of the PIs in the presence of 300 nM ivabradine with electrical pacing at 0.5, 0.7, 1.0, 1.5, and 2.0 Hz. These also included epinephrine, levosimendan, and pimobendan, which had been incorrectly predicted by EHT:R-PAT and/or EHT:ERC platform-cell combinations. […] Thus, in both 2D and 3D configurations, lower beating frequencies led to increased predictivity for PIs.
# Figure 5. Slowed beat rate increases the predictivity of positive inotropes (PIs) in 3D engineered heart tissues (EHTs). Contraction analysis was carried out using EHTs with 6 of the PIs from the drug test set: epinephrine (Epi), forskolin (For), levosimendan (Lev), pimobendan (Pim), dobutamine (Dob), and milrinone (Mil) which had been predicted with variable accuracy (Figure 4A, web tool). […] Scatter plots show percentage changes relative to baseline at respective frequency. Averaged peaks for force are shown for baseline (BL, black peaks) versus after treatment in EHTs paced at 0.5 Hz (blue peaks) or 2.0 Hz (red peaks). Dunnett’s stats versus baseline at respective frequency: *p < .05; **p < .01; ***p < .001; ****p < .0001.
# Supplementary Figure 6. Positive force frequency relationship in EHTs paced between 0.5 and 1.5 Hz. Spontaneous beat rate of EHTs was reduced by 3 hour pre-treatment with 300 nM ivabradine, an If current inhibitor. […] CA increased from 0.5 to 1.5 Hz but plateaued and declined at higher frequencies. These changes were reflected in the CT and RT data. Dunnett's stats vs vehicle control: *, P<0.05; **, P<0.01; ***, P<0.001; ****, P<0.0001.
# [1] = cited from earlier work; for FTPC: free therapeutic plasma concentration, Refs of Supplementary Table 1; for FPTC (free plasma therapeutic concentration): ref Supplementary Table 1
# cardiac contractility = settings: cited from earlier work; for NIE: ref (Perez et al. 1995), (Boldt et al. 2010), (Bois et al. 1996), (Mesirca et al. 2014), (Choi et al. 2016); for EC50: read-out: Expected effect on contractility in isolated cardiomyocytes/heart muscles, EC50
# hiPSC-CMs = tested on: hiPSC-CMs; parameters: method as in Zhao et al., 2019; settings: hiPSC-CMs under loaded conditions; ref Zhao et al., 2019; cited from earlier work
# heart = tested on: heart; parameters: method as in Refs column of Supplementary Table 1; settings: Refs of Supplementary Table 1; cited from earlier work
# [2] = tested on: adult rabbit ventricular cardiomyocytes; assay: CellOPTIQ (CO) contractility, adult rabbit ventricular cardiomyocytes; assay type: cell-based; settings: isolated rabbit myocytes; not reported in any hiPSC-CM platform
# Method: Hearts were removed and perfused retrogradely at 25 ml⋅min^−1 (37°C) with a modified KH solution containing 0.75 mmol/l [Ca^2+] for 5 min, followed by a nominally Ca^2+-free KH solution with 0.1 mmol/l EGTA for 5 min. Hearts were then perfused with KH solution containing 0.24 mmol/l [Ca^2+], 1 mg/ml collagenase (type I), and 0.06 mg/ml protease (type XIV). After approximately 4–5 min, enzyme was removed and the left ventricular free wall was then cut into strips in the recirculated enzyme solution containing 1% bovine serum albumin before being mixed to yield a single cell suspension. Cells were maintained in either Ca^2+-free KH solution or 1 mmol/l Ca^2+ (via stepwise increments) until use. Intact cardiomyocytes in 1.8 mmol/l modified Ca^2+ KH solution were loaded with FluoVolt (Thermo Fisher Scientific) at 1:3000 dilution for 10 min. The incubation medium was removed and the cells resuspended in a modified KH solution.
# Cardiomyocytes were allowed to settle on a coverslip in a bath (35 mm petri-dish) at 37°C. […] A parallel set of vehicle (DMSO) time control experiments were also performed FluoVolt fluorescence (490 nm excitation) was measured at a sampling rate of 10 KHz, whereas the image was recorded on a CCD camera at 100 Hz frame rate using > 700 nm light. […]
# PDE3 = tested on: PDE3; parameters: method as in Refs column of Supplementary Table 1; settings: Refs of Supplementary Table 1; read-out: PDE3 inhibitor IC50; cited from earlier work
# [3] = isolated cardiomyocytes/heart muscles, Refs of Supplementary Table 1
SMILES,relaxation analysis at 80% relaxation (R-PAT hiPSC-CMs),spontaneous beating of EHTs (hiPSC-CM EHTs; 300 nM ivabradine) [Hz],FTPC [1] [µM],FPTC (free plasma therapeutic concentration) [1] [µM],"NIE (cardiac contractility; guinea pig PM, at 100 µM) [%]","NIE (cardiac contractility; guinea pig atria, at 100 µM) [%]",NIE (cardiac contractility; human trabeculae at 100 µM) [%],Expected effect on contractility in isolated cardiomyocytes/heart muscles (cardiac contractility; [3]),relaxation analysis at 50% relaxation (R-PAT hiPSC-CMs),CA response (hiPSC-CM EHTs),EC50 (cardiac contractility; [3]) [nM],inotropy in Biowire II constructs (hiPSC-CMs),Expected cardiac effects in vivo (heart),spontaneous diastolic SR Ca2+ release [2],PCl+PL (cardiac contractility; [3]) [%],Small PI (cardiac contractility; [3]) [%],IC50 (PDE3) [nM]
COc1cc2c(cc1OC)CC(=O)N(CCCN(C)C[C@H]1Cc3cc(OC)c(OC)cc31)CC2 [Ivabradine],late relaxation deficit,< 0.5,0.01 to 0.1,0.01 to 0.1,-60,-13,-38,"None, NC at >10 µM (spontaneously beating preps), NIE (-13/-60% in guinea pig atria/PM, -38% human trabeculae at 100 µM); PI in mouse left atria and 30% of human trabeculae",–,–,–,–,–,–,–,–,–
CC(CCc1ccc(O)cc1)NCCc1ccc(O)c(O)c1 (centres unmarked) [Dobutamine],–,–,0.07 to 1,0.07 to 1,–,–,–,–,positive lusitropy,increased contraction amplitude,1000 to 3000,–,–,–,–,–,–
Cc1[nH]c(=O)c(C#N)cc1-c1ccncc1 [Milrinone],–,–,0.1 to 0.15,0.1 to 0.15,–,–,–,"Small PI, PC#, PCl, PL (smaller than ISO)",–,increased contraction amplitude,60000,positive inotropy,"PI, PC (more heart rate increase and RR decrease than dobutamine)",–,–,–,–
C=C[C@@]1(C)CC(=O)[C@]2(O)[C@@]3(C)[C@@H](O)CCC(C)(C)[C@@H]3[C@H](O)[C@H](OC(C)=O)[C@@]2(C)O1 [Forskolin],–,–,0.012 to 0.024,0.012 to 0.024,–,–,–,–,–,increased contraction amplitude,5000 to 10000,–,"PI, PC",spontaneous diastolic Ca^2+ release and associated diastolic shortening was observed,–,–,–
C[C@@H]1CC(=O)NN=C1c1ccc(NN=C(C#N)C#N)cc1 [Levosimendan],–,–,0.026 to 0.35,0.026 to 0.35,–,–,–,"Small PI (~50%), PC#, PCl+PL (14%)",–,increased contraction amplitude,~100,–,"PI, PC (more heart rate increase and RR decrease than dobutamine)",–,14,~50,25
